Experimental data: publication PMC8023712, “Carboxylesterase Activities and Protein Expression in Rabbit and Pig Ocular Tissues” (Molecular Pharmaceutics, 2021)

Experiments:
[1] = test system: CES1 (pig ocular tissue homogenates); experiment: DME hydrolysis in pig ocular tissue homogenates; conditions: for DME hydrolysis rate: 5 μM DME
Protocol: (§1) The hydrolysis of DME was monitored with slight modifications using the published bioluminescence-based assay[13],[21] where recombinant firefly luciferase enzyme was used to detect the D-luciferin that formed in the reaction mixture. The DME hydrolysis reaction was done in white-coated 96-well plates (Thermo Scientific Sterilin Microtiter Plates). Tissue lysates (5 μg of protein) were preincubated in 0.1 M PBS, pH 6.5. The reaction was initiated by adding DME to a final concentration of 5 μM in a final volume of 200 μL. The hydrolysis of DME was allowed to proceed for 20 min at 37 °C. The formed D-luciferin was quantitated by an injection of 73 μL of the luciferase detection reagent [3 μg of rLuciferase, 50 nmol of ATP, and 50 nmol of MgCl2 in PBS], and the luminescence was measured immediately with a Victor^2 Microplate Reader (560 nm, 1 s). Serial 2-fold dilutions of D-luciferin in 0.1 M PBS, pH 6.5 were used to generate the standard curve (0.156–10 μM).
(§2) Inhibitors were tested at a final concentration range of 0.4–400 μM except for PMSF (0.3–2.5 mM).

[2] = test system: CES1 (rabbit ocular tissue homogenates); experiment: DME hydrolysis in rabbit ocular tissue homogenates; conditions: for DME hydrolysis rate: 5 μM DME
Protocol: as §1, §2

[3] = test system: CES1 (rat whole eye homogenate); experiment: DME hydrolysis in rat whole eye homogenate (positive control); type: in vitro ADME; conditions: 5 μM DME
Text: (§3) CES enzymes are localized in the endoplasmic reticulum,[2],[45] but some activity resides in the cytoplasm.[46] Therefore, to prevent possible losses during sample preparation, we used whole tissue homogenates to characterize CES expression and activity in ocular tissues. The homogenization of pooled ocular tissues in 1 × DPBS buffer (3:1 v/w) was done with a Dounce homogenizer (Thomas Scientific; Swedesboro, NJ) with 5–10 strokes, depending on the ocular tissue. Aqueous humor and vitreous were homogenized without adding buffer. Tissue homogenization buffer was supplemented with protease inhibitor cocktail without phenylmethylsulfonyl fluoride (PMSF), a known inhibitor of esterases.[47],[48] After homogenization, all samples were sonicated at 750 W (Vibra-Cell VCX50 and a four-element microtip probe; Sonics & Materials Inc., Newton, CT) using four pulses of 45 s with a cooling interval of 15 s. […]
(§4) The hydrolysis of DME was monitored with slight modifications using the published bioluminescence-based assay[13],[21] where recombinant firefly luciferase enzyme was used to detect the D-luciferin that formed in the reaction mixture. […] The formed D-luciferin was quantitated by an injection of 73 μL of the luciferase detection reagent [3 μg of rLuciferase, 50 nmol of ATP, and 50 nmol of MgCl2 in PBS], and the luminescence was measured immediately with a Victor^2 Microplate Reader (560 nm, 1 s).

[4] = molecular target: T1, CES1 (human liver homogenate) (Homo sapiens, UniProt P23141); experiment: DME hydrolysis in human liver homogenate (positive control); type: in vitro ADME; conditions: 5 μM DME
T1 construct: Homogenates for rat whole eye (covered by the license # ESAVI/8621/04.10.07/2017) and human liver; from tissue; host or cells: human liver homogenate (donated, Oulu University Hospital)
T1 sequence (P23141 18-567): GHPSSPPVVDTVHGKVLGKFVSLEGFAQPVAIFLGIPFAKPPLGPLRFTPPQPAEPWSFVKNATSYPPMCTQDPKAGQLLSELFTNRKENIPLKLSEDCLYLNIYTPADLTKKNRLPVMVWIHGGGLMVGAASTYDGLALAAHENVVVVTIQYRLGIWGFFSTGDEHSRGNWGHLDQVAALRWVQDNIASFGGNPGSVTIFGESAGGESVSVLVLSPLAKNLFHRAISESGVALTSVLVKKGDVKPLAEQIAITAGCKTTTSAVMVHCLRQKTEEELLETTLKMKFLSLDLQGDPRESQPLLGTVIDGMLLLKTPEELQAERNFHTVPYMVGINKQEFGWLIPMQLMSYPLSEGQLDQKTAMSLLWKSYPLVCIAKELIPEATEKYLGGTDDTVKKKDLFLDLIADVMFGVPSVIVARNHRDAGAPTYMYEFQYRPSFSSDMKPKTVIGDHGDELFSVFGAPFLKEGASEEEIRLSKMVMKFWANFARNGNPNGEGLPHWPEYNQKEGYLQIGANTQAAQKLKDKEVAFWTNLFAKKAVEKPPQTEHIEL
Text: as §3, §4

rhCES1 = conditions: read-out: Km literature data, DME; cited from earlier work

COC(=O)[C@H]1CSC(c2nc3ccc(O)cc3s2)=N1 [DME, D-luciferin methyl ester]
DME hydrolysis rate ([1]; pig RPE, aqueous humor and vitreous): 0.1 to 0.2 nmol/min/mg
DME hydrolysis rate ([1]; pig conjunctiva, cornea and choroid): ≥ 1 nmol/min/mg
DME hydrolysis rate ([1]; pig retina): 0.5 to 1 nmol/min/mg
Km ([1]; read-out: Km (this study), DME hydrolysis in pig cornea): 2.7 ± 1.3 µM
DME hydrolysis rate ([2]; rabbit RPE and retina): 0.1 to 0.5 nmol/min/mg
DME hydrolysis rate ([2]; rabbit aqueous humor and vitreous): 0.5 to 1.0 nmol/min/mg
DME hydrolysis rate ([2]; rabbit conjunctiva, cornea and choroid): ≥ 1 nmol/min/mg
Km ([2]; read-out: Km (this study), DME hydrolysis in rabbit cornea): 2.5 ± 0.8 µM
DME hydrolysis rate [3]: 2.6 ± 0.2 nmol/min/mg
DME hydrolysis rate [4]: 3.6 ± 0.7 nmol/min/mg
Km (rhCES1): ~5 µM
